Results taken from patent US11197871B2, “Methods and materials for treating calcific aortic valve stenosis” (Mayo Foundation for Medical Education and Research, priority 2012, dated 2021).
Entries after “also recorded” stand apart in the source; their conditions may differ.

Experiments:
[1] = test system: aortic valve interstitial cells; test: BMP2-treated aortic valve interstitial cells with or without Ataciguat for 24 hours (pVASP239, Sp7); type: cell-based; details: in vitro
Experimental: Overexpression of DDAH1 reduces endogenous inhibitors of NOS, increases NO production, and increases sGC signaling, ultimately resulting in slower progression of CAVS.
To determine whether induction of sGC signaling reduced osteogenic signaling in vitro, aortic valve interstitial cells were treated with BMP2 in the presence or absence of Ataciguat (HMR1766, 5-Chloro-2-[[(5-chloro-2-thienyl)sulfonyl]amino]-N-[4-(4-morpholinylsulfonyl)phenyl]benzamide) for 24 hours.

[2] = test system: aortic valve interstitial cells; test: Western blotting of BMP, TGFβ and sGC signaling in valve interstitial cells treated with BMP2, TGFβ1 or vehicle, with or without Ataciguat, for 18 hours; type: cell-based, human and mouse; details: Ataciguat 1 μmol, 37° C.
Experimental: FIG. 4 is a graph plotting p-VASP^239 levels detected in aortic valve interstitial cells treated with BMP2 (100 ng/mL), TGFβ1 (10 ng/mL), or neither (control; CTRL) in the presence or absence of Ataciguat (1 μmol) for 18 hours at 37° C.
FIG. 5 is a graph plotting p-Smad1/5/8 levels detected in aortic valve interstitial cells treated with BMP2 (100 ng/mL), TGFβ1 (10 ng/mL), or neither (control; CTRL) in the presence or absence of Ataciguat (1 μmol) for 18 hours at 37° C.
FIG. 6 is a graph plotting Sp7 levels detected in aortic valve interstitial cells treated with BMP2 […], or neither (control; CTRL) in the presence or absence of Ataciguat (1 μmol) for 18 hours at 37° C.
FIG. 7 is a graph plotting p-Smad2 levels detected in aortic valve interstitial cells treated with BMP2 […], or neither (control; CTRL) in the presence or absence of Ataciguat (1 μmol) for 18 hours at 37° C.
Additional experiments were performed to confirm that Ataciguat activates sGC signaling, attenuates BMP2 signaling, attenuates BMP2 target induction, and attenuates fibrogenic signaling in valve interstitial cells. In brief, cells were maintained in Dulbecco's Modified Eagle's Medium (DMEM) with 20% fetal bovine serum (FBS) and expanded to confluence in 6 well plates in a standard 5% CO2 incubator at 37° C. Cells were then treated with BMP2 (100 ng/mL), TGFβ1 (10 ng/mL), or vehicle (phosphate buffered saline) in the absence or presence of Ataciguat (1 μmol) for 18 hours. Cells were lysed using standard protein lysis buffer containing protease and phosphatase inhibitors, and Western blotting was performed to evaluate changes in protein levels of BMP, TGFβ, and sGC signaling.

In the case of `O=C(Nc1ccc(S(=O)(=O)N2CCOCC2)cc1)c1cc(Cl)ccc1NS(=O)(=O)c1ccc(Cl)s1` [Ataciguat, 5-Chloro-2-[[(5-chloro-2-thienyl)sulfonyl]amino]-N-[4-(4-morpholinylsulfonyl)phenyl]benzamide], the “sGC signaling (indicated by pVASP239 levels)” value ([1]; FIG. 2A) is reported as “activated sGC signaling”, the “osteogenic signaling (BMP2-induced Sp7 expression)” value ([1]; FIG. 2B) is reported as “profoundly suppressed osteogenic signaling” and the “sGC signaling (p-VASP239 levels)” value ([2]; BMP2 100 ng/mL, TGFβ1 10 ng/mL or control, FIG. 4, replicated in human (HAV-001, HAV-002, HAV-003) and mouse (MAV1, MAV2, MAV4) cell lines) is reported as “effectively activated sGC signaling”. The “BMP2 signaling (p-Smad1/5/8 levels)” value ([2]; BMP2 100 ng/mL, TGFβ1 10 ng/mL or control, FIG. 5, replicated in human and mouse cell lines) was “attenuated canonical BMP2 signaling”, the “BMP2 target induction (Sp7 levels)” value ([2]; BMP2, TGFβ1 or control, FIG. 6, replicated in human and mouse cell lines) was “attenuated BMP target induction; also recorded: attenuated BMP2 target induction” and the “fibrogenic signaling (p-Smad2 levels)” value ([2]; BMP2, TGFβ1 or control, FIG. 7, replicated in human and mouse cell lines) was “partially attenuated fibrogenic signaling”.
